Values after ≈ are worked out from the molar mass of the structure shown. Where two headings read alike, the source gives them in different places.
Assays:
[1] = system: Elizabethkingia anophelis; experiment: Galleria mellonella (wax moth) infection survival model; type: in vivo; details: 72 h
Protocol: (§1) In vivo efficacy was assessed by wax moth (Galleria mellonella), murine pneumonia, and murine thigh infection models following the protocols of our previous study ([2]). The Animal Ethics Committee of Taiwan’s National Health Research Institutes approved the murine pneumonia and thigh infection models.
G. mellonella was reared at the National Health Research Institutes of Taiwan. Caterpillars in the final instar larval stage (weight ca. 250 mg) were used. […] A 10 µL aliquot of E. anophelis at the predetermined lethal dose was injected into the hemocoel of each caterpillar via the last left proleg. Antibiotics were administered once into another proleg at the indicated time points; vancomycin (5, 10, or 20 mg/kg, 2 h post-inoculation); other glycopeptides (teicoplanin, 10 mg/kg, 30 min post-inoculation; dalbavancin, 8.75 mg/kg, 2 h post-inoculation; oritavancin, 15 mg/kg, 1 h post-inoculation) ([11][–][13]); or daptomycin (10 mg/kg, 2 h post-inoculation) ([13]). Each treatment group contained 6–8 caterpillars. A control group injected with sterile PBS was included to monitor for trauma-related mortality. Caterpillars were incubated at 37°C, and survival was recorded twice daily for 72 h.

[2] = system: Elizabethkingia anophelis; experiment: Broth microdilution (BMD) MIC; type: cell-based
Excerpt: Eighteen E. anophelis clinical isolates from the nationwide surveillance program (Taiwan Surveillance of Antimicrobial Resistance) were well characterized in our previous study ([7]) and were selected for susceptibility testing and minimum bactericidal concentration (MBC) assays. Among them, five isolates with different clonality (underlined strains in Fig. S1) were selected for the time-kill assays and in vivo experiments.
Broth microdilution, disc diffusion, Etest, and agar dilution assays were conducted following CLSI guidelines to determine vancomycin MICs ([8]). […] Criteria for Staphylococcus spp. were not adopted due to the lack of a zone diameter breakpoint. MBCs were determined following CLSI guidelines ([8]).

[3] = system: Elizabethkingia anophelis; experiment: Murine pneumonia model; type: in vivo, C57BL/6J mice; details: 50 mg/kg intraperitoneal twice daily
Protocol: as §1
For the pneumonia model, a bacterial suspension was mixed with 5% mucin from porcine stomach (type 3; Sigma-Aldrich, Saint Louis, USA). Seven-week-old C57BL/6J mice were anesthetized with isoflurane for 10 min. For each strain, the inoculum corresponded to the lowest dose that caused >80% mortality in preliminary testing. This inoculum (10⁶–10⁸ cfu, depending on strain) was delivered intratracheally to induce pneumonia. Two hours thereafter, mice received either high or human-equivalent doses of subcutaneous vancomycin (100 mg/kg or 25 mg/kg, respectively) or intraperitoneal teicoplanin (50 mg/kg) ([17]) twice daily for 3 days. Each group contained eight mice, and survival was monitored for 3 days.

[4] = Serum drug levels in mice (LC-MS/MS); type: in vivo; details: single dose 50 mg/kg intraperitoneal teicoplanin vs 25 or 100 mg/kg subcutaneous vancomycin
Protocol: Fifty microliters of aliquots of murine serum was mixed with 100 µL acetonitrile. The mixture was vortexed and then centrifuged at 15,000 × g for 20 min in a Beckman Coulter Microfuge 22R Centrifuge at room temperature. The supernatant was transferred to a clean tube, and then 15 µL of the supernatant was injected onto LC-MS/MS. The chromatographic system consisted of an Agilent 1200 series LC system and an Agilent ZORBAX Eclipse XDB-C8 column (5 µm, 3.0 × 150 mm) interfaced to an MDS Sciex API3000 tandem mass spectrometer. The MS/MS ion transitions monitored were m/z 725/144 for vancomycin. A gradient HPLC method was employed for separation. Mobile phase A consisted of 10 mM ammonium acetate aqueous solution containing 0.1% formic acid and mobile phase B consisted of acetonitrile. The gradient profile was as follows (min/%B): 0.0–0.9/5, 1.0–2.0/50, 2.1–3.7/95, 3.8–5.0/5. The flow rate was set at 1.5 mL/min.

[5] = system: Elizabethkingia anophelis; experiment: Murine neutropenic thigh infection model; type: in vivo, C57BL/6J mice; details: 50 mg/kg intraperitoneal, 2 h and 14 h after inoculation
Protocol: as §1
For the thigh infection model, seven-week-old C57BL/6J mice were rendered neutropenic by intraperitoneal injections of cyclophosphamide (Cytoxan; Bristol-Myers Squibb, Princeton, NJ, USA) 4 days (150 mg/kg) and 1 day (100 mg/kg) before bacterial inoculation. A 30 µL aliquot containing the E. anophelis (10^7 cfu) was injected into each of the two rear thighs. Vancomycin (25 mg/kg or 100 mg/kg, subcutaneous) or teicoplanin (50 mg/kg, intraperitoneal) was administered 2 h and 14 h after inoculation. Mice were sacrificed 24 h post-inoculation, and homogenized thigh tissue was plated in serial 10-fold dilutions on brain-heart infusion agar to determine bacterial counts. Each mouse, not each thigh, was considered an individual data point.

[6] = Elizabethkingia anophelis, E. anophelis clinical isolate 2008N05-106, read-out: MIC, BMD
[7] = Elizabethkingia anophelis, E. anophelis clinical isolate 2008S01-229, read-out: MIC, BMD
[8] = Elizabethkingia anophelis, E. anophelis clinical isolate 2014C06-157, read-out: MIC, BMD
[9] = Elizabethkingia anophelis, E. anophelis clinical isolate 2016N17-576, read-out: MIC, BMD
[10] = Elizabethkingia anophelis, E. anophelis clinical isolate 2018C04-213, read-out: MIC, BMD
[11] = Elizabethkingia anophelis, E. anophelis clinical isolate 2018C04-224, read-out: MIC, BMD
[12] = Elizabethkingia anophelis, E. anophelis clinical isolate 2018C07-210, read-out: MIC, BMD
[13] = Elizabethkingia anophelis, E. anophelis clinical isolate 2018C07-234, read-out: MIC, BMD
[14] = Elizabethkingia anophelis, E. anophelis clinical isolate 2018C08-127, read-out: MIC, BMD
[15] = Elizabethkingia anophelis, E. anophelis clinical isolate 2018E03-151, read-out: MIC, BMD
[16] = Elizabethkingia anophelis, E. anophelis clinical isolate 2018E04-135, read-out: MIC, BMD
[17] = Elizabethkingia anophelis, E. anophelis clinical isolate 2018N16-057, read-out: MIC, BMD
[18] = Elizabethkingia anophelis, E. anophelis clinical isolate 2018N17-036, read-out: MIC, BMD
[19] = Elizabethkingia anophelis, E. anophelis clinical isolate 2018N17-073, read-out: MIC, BMD
[20] = Elizabethkingia anophelis, E. anophelis clinical isolate 2018N17-153, read-out: MIC, BMD
[21] = Elizabethkingia anophelis, E. anophelis clinical isolate 2018N21-226, read-out: MIC, BMD
[22] = Elizabethkingia anophelis, E. anophelis clinical isolate 2018S09-023, read-out: MIC, BMD
[23] = Elizabethkingia anophelis, E. anophelis clinical isolate 2018S11-172, read-out: MIC, BMD
[24] = E. anophelis used in the G. mellonella assays of Fig. S4, isolate and method not given

In the case of `CCCCCCCCCC(=O)N[C@@H](Cc1c[nH]c2ccccc12)C(=O)N[C@H](CC(N)=O)C(=O)N[C@@H](CC(=O)O)C(=O)N[C@@H]1C(=O)NCC(=O)N[C@@H](CCCN)C(=O)N[C@@H](CC(=O)O)C(=O)N[C@H](C)C(=O)N[C@@H](CC(=O)O)C(=O)NCC(=O)N[C@H](CO)C(=O)N[C@@H]([C@H](C)CC(=O)O)C(=O)N[C@@H](CC(=O)c2ccccc2N)C(=O)O[C@@H]1C` [daptomycin], the “survival of infected wax moths” value ([1]; 10 mg/kg once, 2 h post-inoculation) was “no survival benefit” and the MIC ([2]; E. anophelis used in the G. mellonella assays of Fig. S4, isolate and method not given, read-out: MICs) was 128 µg/mL (≈ 79 µM).

`CN(C)c1ccc(O)c2c1C[C@H]1C[C@H]3[C@H](N(C)C)C(O)=C(C(N)=O)C(=O)[C@@]3(O)C(O)=C1C2=O` [Minocycline] gave an MIC [2, 6] of at most 2 µg/mL, an MIC [2, 7] of at most 2 µg/mL and an MIC [2, 8] of at most 2 µg/mL. For the same molecule, the MIC [2, 9] was at most 2 µg/mL, the MIC [2, 10] was at most 2 µg/mL and the MIC [2, 11] was at most 2 µg/mL. For the same molecule, the MIC [2, 12] was at most 2 µg/mL, the MIC [2, 13] was at most 2 µg/mL and the MIC [2, 14] was at most 2 µg/mL. The MIC [2, 15] was at most 2 µg/mL, the MIC [2, 16] was at most 2 µg/mL and the MIC [2, 17] was at most 2 µg/mL. For the same molecule, the MIC [2, 18] was at most 2 µg/mL, the MIC [2, 19] was at most 2 µg/mL and the MIC [2, 20] was at most 2 µg/mL. The MIC [2, 21] was at most 2 µg/mL, the MIC [2, 22] was at most 2 µg/mL and the MIC [2, 23] was at most 2 µg/mL.

With Teicoplanin the “survival of infected wax moths” value ([1]; 10 mg/kg once, 30 min post-inoculation) was “no survival benefit”, the “survival of infected mice” value [3] was “little effect” and the “concentration in murine serum relative to vancomycin” value [4] was “much higher than that of vancomycin”. For the same molecule, the “MIC, BMD” value ([2]; E. anophelis clinical isolate 2008N05-106) was 128 µg/mL, the “MIC, BMD” value ([2]; E. anophelis clinical isolate 2008S01-229) was 128 µg/mL and the “MIC, BMD” value ([2]; E. anophelis clinical isolate 2014C06-157) was 128 µg/mL. The “MIC, BMD” value ([2]; E. anophelis clinical isolate 2016N17-576) was 128 µg/mL, the “MIC, BMD” value ([2]; E. anophelis clinical isolate 2018C04-213) was 128 µg/mL and the “MIC, BMD” value ([2]; E. anophelis clinical isolate 2018C04-224) was 128 µg/mL. For the same molecule, the “MIC, BMD” value ([2]; E. anophelis clinical isolate 2018C07-210) was 256 µg/mL, the “MIC, BMD” value ([2]; E. anophelis clinical isolate 2018C07-234) was 256 µg/mL and the “MIC, BMD” value ([2]; E. anophelis clinical isolate 2018C08-127) was 128 µg/mL. For the same molecule, the “MIC, BMD” value ([2]; E. anophelis clinical isolate 2018E03-151) was 128 µg/mL, the “MIC, BMD” value ([2]; E. anophelis clinical isolate 2018E04-135) was 64 µg/mL and the “MIC, BMD” value ([2]; E. anophelis clinical isolate 2018N16-057) was 128 µg/mL. For the same molecule, the “MIC, BMD” value ([2]; E. anophelis clinical isolate 2018N17-036) was 128 µg/mL, the “MIC, BMD” value ([2]; E. anophelis clinical isolate 2018N17-073) was 128 µg/mL and the “MIC, BMD” value ([2]; E. anophelis clinical isolate 2018N17-153) was 128 µg/mL. For the same molecule, the “MIC, BMD” value ([2]; E. anophelis clinical isolate 2018N21-226) was 64 µg/mL, the “MIC, BMD” value ([2]; E. anophelis clinical isolate 2018S09-023) was 64 µg/mL and the “MIC, BMD” value ([2]; E. anophelis clinical isolate 2018S11-172) was 64 µg/mL. The MICs [2, 24] was 128 mg/L and the “reduction of bacterial loads in thigh” value [5] was “little effect”.

`C[C@H]1COc2c(N3CCN(C)CC3)c(F)cc3c(=O)c(C(=O)O)cn1c23` [Levofloxacin] showed an MIC [2, 6] of over 8 µg/mL, an MIC [2, 7] of at most 1 µg/mL and an MIC [2, 8] of over 8 µg/mL. The MIC [2, 9] was over 8 µg/mL, the MIC [2, 10] was over 8 µg/mL and the MIC [2, 11] was over 8 µg/mL. It also gave an MIC [2, 12] of over 8 µg/mL, an MIC [2, 13] of over 8 µg/mL and an MIC [2, 14] of 2 µg/mL (≈ 5.53 µM). It also gave an MIC [2, 15] of 2 µg/mL (≈ 5.53 µM), an MIC [2, 16] of at most 1 µg/mL and an MIC [2, 17] of at most 1 µg/mL. The MIC [2, 18] was over 8 µg/mL, the MIC [2, 19] was over 8 µg/mL and the MIC [2, 20] was over 8 µg/mL. It also gave an MIC [2, 21] of at most 1 µg/mL, an MIC [2, 22] of at most 1 µg/mL and an MIC [2, 23] of 2 µg/mL (≈ 5.53 µM).

In the case of `CN[C@H](CC(C)C)C(=O)N[C@H]1C(=O)N[C@@H](CC(N)=O)C(=O)N[C@H]2C(=O)N[C@H]3C(=O)N[C@H](C(=O)N[C@H](C(=O)O)c4cc(O)cc(O)c4-c4cc3ccc4O)[C@H](O[C@H]3C[C@](C)(N)[C@@H](O)[C@H](C)O3)c3ccc(c(Cl)c3)Oc3cc2cc(c3O[C@@H]2O[C@H](CO)[C@@H](O)[C@H](O)[C@H]2O[C@H]2C[C@](C)(NCc3ccc(-c4ccc(Cl)cc4)cc3)[C@@H](O)[C@H](C)O2)Oc2ccc(cc2Cl)[C@H]1O` [oritavancin], the “survival of infected wax moths” value ([1]; 15 mg/kg once, 1 h post-inoculation) was “no survival benefit” and the MIC ([2]; read-out: MICs, E. anophelis used in the G. mellonella assays of Fig. S4, isolate and method not given) was 64 µg/mL (≈ 35.7 µM).

For `CN[C@H]1C(=O)N[C@@H]2Cc3ccc(cc3)Oc3cc4cc(c3O[C@@H]3O[C@H](C(=O)O)[C@@H](O)[C@H](O)[C@H]3NC(=O)CCCCCCCCC(C)C)Oc3ccc(cc3Cl)[C@@H](O)[C@@H]3NC(=O)[C@H](NC(=O)[C@@H]4NC(=O)[C@@H](NC2=O)c2cc(cc(O)c2Cl)Oc2cc1ccc2O)c1ccc(O)c(c1)-c1c(O[C@H]2O[C@H](CO)[C@@H](O)[C@H](O)[C@@H]2O)cc(O)cc1[C@@H](C(=O)NCCCN(C)C)NC3=O` [dalbavancin], the “survival of infected wax moths” value ([1]; 8.75 mg/kg once, 2 h post-inoculation) was “no survival benefit” and the MICs [2, 24] was 64 mg/L.
